Data on 1 compound can be found in US9491933B2, “Infected nail of animal infected with fungus” (POLA PHARMA, INC., priority 2007, dated 2016).

This assay is described as follows: Rabbit immunity suppression: body weight change after administration of the immunosuppressive agent. In kind it is in vivo, Japanese white rabbit. The note with it: 4 mg/kg per dose to femoral muscle once a week; 2 weeks after starting the administration; average of 15 rabbits. The protocol: 14 week old Japanese white rabbits (Kbl: JW, Kitayama Labes Co., Ltd.) were quarantined and acclimatized for 1 week. After acclimatization, a long-acting methylprednisolone acetate preparation (Depo Melcort, Fuji Pharma Co., Ltd.) was administered as an immunosuppressive agent to femoral muscle a total of three times, with 4 mg/kg as the amount administered in one dose, at intervals of once a week. […] At a point 2 weeks after starting the administration, at which the average of the weights of a total of 15 rabbits had decreased by about 6% from the weight prior to administration, inoculation with a fungal liquid was carried out.

Turning to `CC(=O)OCC(=O)[C@@]1(O)CC[C@H]2[C@@H]3C[C@H](C)C4=CC(=O)C=C[C@]4(C)[C@H]3[C@@H](O)C[C@@]21C` [methylprednisolone acetate], the “decrease of average weight from the weight prior to administration (indicator of immunocompromise)” value is “about 6%”.
